Molecular target: MeAmi_SBP
Experiment: isothermal analysis of ligand-titrated DSF
Format: binding, Mesorhizobium sp.
Details: 50 mM Tris, 300 mM NaCl, pH 7.4; 8.4 μM His6-tagged protein; one-site model

| Kd [nM] | SMILES |
| --- | --- |
| 49700 | NCC(N)=O [glycinamide] |
| 1530 | C[C@H](N)C(N)=O [L-alaninamide] |
| 187 | NC(=O)[C@@H](N)Cc1ccc(O)cc1 [L-tyrosinamide] |

— doi:10.1101/2024.02.22.581678v1 (biorxiv, 2024)
